# Data as given in the OligoGym collection.
# Oligonucleotides are given in HELM: sugar(base)linkage, 5' to 3'; d 2'-deoxyribose, r ribose, m 2'-O-methylribose, p phosphate. ss, as = sense and antisense strand
# Target: UBE2N
# Assay: reporter assay of Huesken 2005
# Conditions: siRNA
# Also: test concentration or dose not given here.
row,Substance,normalised inhibition (eCFP-eYFP dual reporter) [%]
1,RNA1{r(U)p.r(U)p.r(U)p.r(U)p.r(G)p.r(A)p.r(A)p.r(A)p.r(G)p.r(A)p.r(U)p.r(A)p.r(A)p.r(G)p.r(U)p.r(G)p.r(G)p.r(U)p.r(C)p.d(T)p.d(T)}|RNA2{r(G)p.r(A)p.r(C)p.r(C)p.r(A)p.r(C)p.r(U)p.r(U)p.r(A)p.r(U)p.r(C)p.r(U)p.r(U)p.r(U)p.r(C)p.r(A)p.r(A)p.r(A)p.r(A)p.d(T)p.d(A)}$$$RNA1{StrandType:ss}|RNA2{StrandType:as}$,35.5
2,RNA1{r(U)p.r(C)p.r(C)p.r(U)p.r(U)p.r(C)p.r(C)p.r(A)p.r(G)p.r(A)p.r(A)p.r(G)p.r(A)p.r(A)p.r(U)p.r(A)p.r(C)p.r(C)p.r(C)p.d(T)p.d(T)}|RNA2{r(G)p.r(G)p.r(G)p.r(U)p.r(A)p.r(U)p.r(U)p.r(C)p.r(U)p.r(U)p.r(C)p.r(U)p.r(G)p.r(G)p.r(A)p.r(A)p.r(G)p.r(G)p.r(A)p.d(A)p.d(T)}$$$RNA1{StrandType:ss}|RNA2{StrandType:as}$,36.9
3,RNA1{r(A)p.r(C)p.r(G)p.r(A)p.r(A)p.r(G)p.r(C)p.r(C)p.r(C)p.r(A)p.r(A)p.r(G)p.r(C)p.r(C)p.r(A)p.r(U)p.r(A)p.r(G)p.r(A)p.d(T)p.d(T)}|RNA2{r(U)p.r(C)p.r(U)p.r(A)p.r(U)p.r(G)p.r(G)p.r(C)p.r(U)p.r(U)p.r(G)p.r(G)p.r(G)p.r(C)p.r(U)p.r(U)p.r(C)p.r(G)p.r(U)p.d(T)p.d(G)}$$$RNA1{StrandType:ss}|RNA2{StrandType:as}$,77.5
4,RNA1{r(A)p.r(C)p.r(C)p.r(A)p.r(A)p.r(A)p.r(A)p.r(U)p.r(U)p.r(U)p.r(A)p.r(U)p.r(C)p.r(A)p.r(U)p.r(C)p.r(C)p.r(U)p.r(A)p.d(T)p.d(T)}|RNA2{r(U)p.r(A)p.r(G)p.r(G)p.r(A)p.r(U)p.r(G)p.r(A)p.r(U)p.r(A)p.r(A)p.r(A)p.r(U)p.r(U)p.r(U)p.r(U)p.r(G)p.r(G)p.r(U)p.d(C)p.d(A)}$$$RNA1{StrandType:ss}|RNA2{StrandType:as}$,81.6
5,RNA1{r(G)p.r(A)p.r(A)p.r(C)p.r(C)p.r(A)p.r(G)p.r(U)p.r(U)p.r(C)p.r(C)p.r(U)p.r(G)p.r(G)p.r(C)p.r(A)p.r(U)p.r(C)p.r(A)p.d(T)p.d(T)}|RNA2{r(U)p.r(G)p.r(A)p.r(U)p.r(G)p.r(C)p.r(C)p.r(A)p.r(G)p.r(G)p.r(A)p.r(A)p.r(C)p.r(U)p.r(G)p.r(G)p.r(U)p.r(U)p.r(C)p.d(T)p.d(G)}$$$RNA1{StrandType:ss}|RNA2{StrandType:as}$,36
6,RNA1{r(A)p.r(C)p.r(C)p.r(C)p.r(A)p.r(A)p.r(U)p.r(G)p.r(G)p.r(C)p.r(A)p.r(G)p.r(C)p.r(C)p.r(C)p.r(C)p.r(U)p.r(A)p.r(A)p.d(T)p.d(T)}|RNA2{r(U)p.r(U)p.r(A)p.r(G)p.r(G)p.r(G)p.r(G)p.r(C)p.r(U)p.r(G)p.r(C)p.r(C)p.r(A)p.r(U)p.r(U)p.r(G)p.r(G)p.r(G)p.r(U)p.d(A)p.d(T)}$$$RNA1{StrandType:ss}|RNA2{StrandType:as}$,64
7,RNA1{r(A)p.r(C)p.r(C)p.r(A)p.r(G)p.r(U)p.r(U)p.r(C)p.r(C)p.r(U)p.r(G)p.r(G)p.r(C)p.r(A)p.r(U)p.r(C)p.r(A)p.r(A)p.r(A)p.d(T)p.d(T)}|RNA2{r(U)p.r(U)p.r(U)p.r(G)p.r(A)p.r(U)p.r(G)p.r(C)p.r(C)p.r(A)p.r(G)p.r(G)p.r(A)p.r(A)p.r(C)p.r(U)p.r(G)p.r(G)p.r(U)p.d(T)p.d(C)}$$$RNA1{StrandType:ss}|RNA2{StrandType:as}$,97.4
8,RNA1{r(U)p.r(G)p.r(G)p.r(C)p.r(A)p.r(U)p.r(C)p.r(A)p.r(A)p.r(A)p.r(G)p.r(C)p.r(C)p.r(G)p.r(A)p.r(A)p.r(C)p.r(C)p.r(A)p.d(T)p.d(T)}|RNA2{r(U)p.r(G)p.r(G)p.r(U)p.r(U)p.r(C)p.r(G)p.r(G)p.r(C)p.r(U)p.r(U)p.r(U)p.r(G)p.r(A)p.r(U)p.r(G)p.r(C)p.r(C)p.r(A)p.d(G)p.d(G)}$$$RNA1{StrandType:ss}|RNA2{StrandType:as}$,81.6
9,RNA1{r(A)p.r(U)p.r(U)p.r(U)p.r(U)p.r(C)p.r(A)p.r(U)p.r(G)p.r(U)p.r(G)p.r(G)p.r(U)p.r(C)p.r(A)p.r(U)p.r(U)p.r(G)p.r(C)p.d(T)p.d(T)}|RNA2{r(G)p.r(C)p.r(A)p.r(A)p.r(U)p.r(G)p.r(A)p.r(C)p.r(C)p.r(A)p.r(C)p.r(A)p.r(U)p.r(G)p.r(A)p.r(A)p.r(A)p.r(A)p.r(U)p.d(A)p.d(A)}$$$RNA1{StrandType:ss}|RNA2{StrandType:as}$,47.1
10,RNA1{r(G)p.r(U)p.r(G)p.r(G)p.r(U)p.r(C)p.r(A)p.r(U)p.r(U)p.r(G)p.r(C)p.r(U)p.r(G)p.r(G)p.r(C)p.r(C)p.r(C)p.r(U)p.r(C)p.d(T)p.d(T)}|RNA2{r(G)p.r(A)p.r(G)p.r(G)p.r(G)p.r(C)p.r(C)p.r(A)p.r(G)p.r(C)p.r(A)p.r(A)p.r(U)p.r(G)p.r(A)p.r(C)p.r(C)p.r(A)p.r(C)p.d(A)p.d(T)}$$$RNA1{StrandType:ss}|RNA2{StrandType:as}$,54.1
11,RNA1{r(A)p.r(U)p.r(U)p.r(A)p.r(G)p.r(C)p.r(A)p.r(A)p.r(A)p.r(U)p.r(G)p.r(A)p.r(U)p.r(G)p.r(U)p.r(A)p.r(G)p.r(C)p.r(G)p.d(T)p.d(T)}|RNA2{r(C)p.r(G)p.r(C)p.r(U)p.r(A)p.r(C)p.r(A)p.r(U)p.r(C)p.r(A)p.r(U)p.r(U)p.r(U)p.r(G)p.r(C)p.r(U)p.r(A)p.r(A)p.r(U)p.d(G)p.d(G)}$$$RNA1{StrandType:ss}|RNA2{StrandType:as}$,34.2
12,RNA1{r(C)p.r(A)p.r(U)p.r(U)p.r(A)p.r(G)p.r(C)p.r(A)p.r(A)p.r(A)p.r(U)p.r(G)p.r(A)p.r(U)p.r(G)p.r(U)p.r(A)p.r(G)p.r(C)p.d(T)p.d(T)}|RNA2{r(G)p.r(C)p.r(U)p.r(A)p.r(C)p.r(A)p.r(U)p.r(C)p.r(A)p.r(U)p.r(U)p.r(U)p.r(G)p.r(C)p.r(U)p.r(A)p.r(A)p.r(U)p.r(G)p.d(G)p.d(A)}$$$RNA1{StrandType:ss}|RNA2{StrandType:as}$,30.2
13,RNA1{r(C)p.r(U)p.r(C)p.r(C)p.r(C)p.r(A)p.r(A)p.r(U)p.r(C)p.r(C)p.r(A)p.r(G)p.r(A)p.r(U)p.r(G)p.r(A)p.r(U)p.r(C)p.r(C)p.d(T)p.d(T)}|RNA2{r(G)p.r(G)p.r(A)p.r(U)p.r(C)p.r(A)p.r(U)p.r(C)p.r(U)p.r(G)p.r(G)p.r(A)p.r(U)p.r(U)p.r(G)p.r(G)p.r(G)p.r(A)p.r(G)p.d(C)p.d(A)}$$$RNA1{StrandType:ss}|RNA2{StrandType:as}$,58.7
14,RNA1{r(A)p.r(A)p.r(A)p.r(C)p.r(U)p.r(U)p.r(G)p.r(A)p.r(A)p.r(C)p.r(U)p.r(A)p.r(U)p.r(U)p.r(C)p.r(C)p.r(U)p.r(U)p.r(C)p.d(T)p.d(T)}|RNA2{r(G)p.r(A)p.r(A)p.r(G)p.r(G)p.r(A)p.r(A)p.r(U)p.r(A)p.r(G)p.r(U)p.r(U)p.r(C)p.r(A)p.r(A)p.r(G)p.r(U)p.r(U)p.r(U)p.d(A)p.d(A)}$$$RNA1{StrandType:ss}|RNA2{StrandType:as}$,43.6
